Results from patent US20160257651A1, “NOVEL COMPOUND WITH ANTIBACTERIAL ACTIVITY” (priority 2013, published 2016).
Values after ≈ are worked out from the molar mass of the structure shown. Read-outs that look alike come from different tables or passages of the source.

What was measured:
[1] = tested on: S. aureus MR5867 three-step mutant; test: MIC against stepwise QRDR mutants; type: cell-based; details: Staphylococcus aureus
Description: (§1) In order to further verify that the action site of the compound J-131CP is gyrA, there were examined antibacterial activities against the MRSA, S. aureus MR5867, and stepwise-mutated strains (one-step mutant strain to three-step mutant strain) of S. aureus MR5867 in which mutation was introduced into QRDR, as well as the MSSA, S. aureus MS5952, and stepwise-mutated strains (one-step mutant strain to three-step mutant strain) of S. aureus MS5952 in which mutation was introduced into QRDR (those strains mentioned above are described in Antimicrob. Agents Chemother., 42(8), pp. 1917-1922, 1998) by the following methods. The strains used for this test example are available from the inventors of the present invention.
(§2) The compound J-131CP and quinolones were prepared in the same manner as that of Test Example 1-1.
(§3) Then, the cell suspension was diluted 500 times with CAMHB mentioned above.
(§4) CAMHB containing each of the compound J-131CP and quinolones at each concentration was added to each well of a 96-well plate in a volume of 50 μL/well, the aforementioned cell suspension diluted 500 times was added to the well in a volume of 50 μL/well, and stationary culture was carried out overnight at 37° C. in the same manner as that of Test Example 1-1.

[2] = tested on: S. aureus MR5867 two-step mutant; test: MIC against stepwise QRDR mutants; type: cell-based; details: Staphylococcus aureus
Description: as §1, §2, §3, §4

[3] = tested on: S. aureus MR5867; test: MIC against stepwise QRDR mutants; type: cell-based; details: Staphylococcus aureus
Description: as §1, §2, §3, §4

[4] = tested on: S. aureus MS5952 three-step mutant; test: MIC against stepwise QRDR mutants; type: cell-based; details: Staphylococcus aureus
Description: as §1, §2, §3, §4

[5] = tested on: S. aureus MS5952 two-step mutant; test: MIC against stepwise QRDR mutants; type: cell-based; details: Staphylococcus aureus
Description: as §1, §2, §3, §4

[6] = tested on: S. aureus MS5952; test: MIC against stepwise QRDR mutants; type: cell-based; details: Staphylococcus aureus
Description: as §1, §2, §3, §4

[7] = tested on: S. aureus MR5867 one-step mutant; test: MIC against stepwise QRDR mutants; type: cell-based; details: Staphylococcus aureus
Experimental: (§5) The strains used for this test example are available from the inventors of the present invention.
as §3

[8] = tested on: S. aureus MS5952 one-step mutant; test: MIC against stepwise QRDR mutants; type: cell-based; details: Staphylococcus aureus
Experimental: as §5, §3

[9] = tested on: E. faecium NCTC12202; test: MIC against Enterococcus bacteria; type: cell-based, Enterococcus faecium; details: Enterococcus faecium, NCTC 12202 / VRE
Experimental: (§6) Antibacterial activities of the compound J-131CP against Enterococcus bacteria (Enterococcus faecium and Enterococcus faecalis) were examined by the following methods.
as §2
(§7) Cell suspensions were prepared in the same manner as that of Test Example 1-1 described in the section of measurement of MIC in Test Example 1-1, except that the Enterococcus bacterium strains mentioned in Table 8 were used instead of Staphylococcus aureus, and MICs of the compound J-131CP and quinolones as control were determined for the strains in the same manner as that of Test Example 1-1 described in the section of measurement of MIC in Test Example 1-1. In Table 8, the amino acid substitution mutations in QRDR of the strains are underlined.

[10] = tested on: E. faecium RPR2; test: MIC against Enterococcus bacteria; type: cell-based, Enterococcus faecium
Experimental: as §6, §2, §7

[11] = tested on: E. faecalis 36-15747; test: MIC against Enterococcus bacteria; type: cell-based; details: 3615747, ParC 80Ile
Experimental: as §6, §2, §7

[12] = tested on: E. faecalis NCTC12201; test: MIC against Enterococcus bacteria; type: cell-based; details: Enterococcus faecalis, NCTC 12201 / VRE, quinolone-susceptible
Experimental: as §6, §2, §7

[13] = tested on: E. faecalis NCTC12203; test: MIC against Enterococcus bacteria; type: cell-based; details: NCTC 12203 / VRE
Experimental: as §6, §2, §7

[14] = tested on: E. faecium NCTC12204; test: MIC against Enterococcus bacteria; type: cell-based; details: NCTC 12204 / VRE
Experimental: as §6, §2, §7

[15] = tested on: E. faecium RPR10; test: MIC against Enterococcus bacteria; type: cell-based
Experimental: as §6, §2, §7

[16] = tested on: S. pneumoniae BCLSP16; test: MIC against pneumococcus, CAMHB with 5 mass % LHB; type: cell-based; details: Streptococcus pneumoniae
Description: (§8) Antibacterial activity of the compound J-131CP against pneumococcus (Streptococcus pneumoniae) was examined by the following method. The S. pneumoniae strains used for this test belong to any one of the categories of penicillin-susceptible pneumococcus (penicillin-susceptible Streptococcus pneumoniae, PSSP), penicillin-intermediate pneumococcus (penicillin-intermediate Streptococcus pneumoniae, PISP), and penicillin-resistant pneumococcus (penicillin-resistant Streptococcus pneumoniae, PRSP).
(§9) The compound J-131CP and quinolones were prepared in the same manner as that of Test Example 1-1, except that CAMHB containing 5 mass % of lysed horse blood (LHB) was used for the dilution instead of CAMHB. The lysed horse blood was prepared by adding sterilized water to horse sterile defibered blood (produced by Nippon Bio-Supp. Center) at a ratio of 1:1, subjecting the mixture to freezing and thawing 5 times, then centrifuging the mixture twice at 10,000 rpm for 20 minutes, and filtering the supernatant through a filter.
(§10) The S. pneumoniae strains mentioned in Table 11 were each cultured overnight at 37° C. on a blood agar medium as stationary culture. The blood agar medium was prepared by adding 5 mass % ovine sterile defibered blood (produced by Nippon Bio-Supp. Center) to a heart infusion agar medium (produced by EIKEN CHEMICAL). Each S. pneumoniae strain cultured overnight at 37° C. as stationary culture was further subcultured overnight at 37° C. on fresh blood agar medium as stationary culture. After completion of the culture, cells of each pneumococcus strain were collected with a swab, and suspended in physiological saline, and the suspension was adjusted with physiological saline to show absorbance of 0.08 to 0.13 at 625 nm as measured with an absorbance meter (produced by Amersham), and further diluted 200 times with CAMHB containing 5 mass % LHB.
(§11) CAMHB containing the compound J-131CP at each concentration or each quinolone at each concentration, and 5 mass % LHB was added to each well of a 96-well plate in a volume of 50 μL/well, each cell suspension diluted 200 times was added to the well in a volume of 50 μL/well, and stationary culture was carried out overnight at 37° C.
(§12) After completion of the culture, whether the bacterium proliferated or not was determined on the basis of visually observed turbidity of the culture in the well, and MIC values (mg/L) of the compound J-131CP and the quinolones for the strains were determined. In Table 11, the amino acid substitution mutations in QRDR of the strains are underlined.

[17] = tested on: S. pneumoniae JHSP11; test: MIC against pneumococcus, CAMHB with 5 mass % LHB; type: cell-based; details: Streptococcus pneumoniae
Description: as §8, §9, §10, §11, §12

[18] = tested on: S. pneumoniae KBSP04; test: MIC against pneumococcus, CAMHB with 5 mass % LHB; type: cell-based; details: Streptococcus pneumoniae
Description: as §8, §9, §10, §11, §12

[19] = E. faecium NCTC12202, VRE, quinolone-susceptible, read-out: MIC
[20] = E. faecalis NCTC12203, VRE, read-out: MIC
[21] = E. faecium NCTC12204, VRE, read-out: MIC
[22] = E. faecium RPR10, read-out: MIC
[23] = S. pneumoniae KBSP04, PISP, read-out: MIC

Row | SMILES | MIC [1] [µg/mL] | MIC [2] [µg/mL] | MIC [3] [µg/mL] | MIC [4] [µg/mL] | MIC [5] [µg/mL] | MIC [6] [µg/mL] | MIC [7] [µg/mL] | MIC [8] [µg/mL] | MIC ([10]; Enterococcus faecium, RPR2) [µg/mL] | MIC [11] [µg/mL] | MIC ([16]; BCLSP16) [µg/mL] | MIC [17] [µg/mL] | MIC ([18]; KBSP04) [µg/mL] | MIC [9, 19] [µg/mL] | MIC ([12]; read-out: MIC) [µg/mL] | MIC [13, 20] [µg/mL] | MIC [14, 21] [µg/mL] | MIC [15, 22] [µg/mL] | MIC [18, 23] [µg/mL] | further results
1 | O=c1cc(CO)c2cc(F)c(-c3ccc(O)cc3)cc2n1C1CC1 [J-131CP, 1-cyclopropyl-6-fluoro-4-(hydroxymethyl)-7-(4-hydroxyphenyl)-1,2-dihydroquinolin-2-one] | ≤ 0.06 | > 0.06 | 0.25 (≈ 0.768 µM) | 0.125 (≈ 0.384 µM) | 0.125 (≈ 0.384 µM) | 0.25 (≈ 0.768 µM) | 0.25 (≈ 0.768 µM) | 0.25 (≈ 0.768 µM) | 4 (≈ 12.3 µM) | 0.5 (≈ 1.54 µM) | 4 (≈ 12.3 µM) | 4 (≈ 12.3 µM) | 4 (≈ 12.3 µM) |  |  |  |  |  |  | MIC [9]: 8 µg/mL (≈ 24.6 µM); MIC [12]: 0.5 µg/mL (≈ 1.54 µM); MIC [13]: 2 µg/mL (≈ 6.15 µM); MIC [14]: 8 µg/mL (≈ 24.6 µM); MIC ([15]; RPR10): 4 µg/mL (≈ 12.3 µM)
2 | CC1COc2c(N3CCN(C)CC3)c(F)cc3c(=O)c(C(=O)O)cn1c23 (stereo not drawn) [OFX, ofloxacin] | 64 (≈ 177 µM) | 16 (≈ 44.3 µM) | 0.25 (≈ 0.692 µM) | 64 (≈ 177 µM) | 8 (≈ 22.1 µM) | 0.25 (≈ 0.692 µM) | 1 (≈ 2.77 µM) | 1 (≈ 2.77 µM) | > 128 | 4 (≈ 11.1 µM) | 16 (≈ 44.3 µM) | 8 (≈ 22.1 µM) |  | 1 (≈ 2.77 µM) | 2 (≈ 5.53 µM) | 4 (≈ 11.1 µM) | 4 (≈ 11.1 µM) | 2 (≈ 5.53 µM) | 0.5 (≈ 1.38 µM) | 
3 | C[C@@H]1CN(c2c(F)c(N)c3c(=O)c(C(=O)O)cn(C4CC4)c3c2F)C[C@H](C)N1 [SPX, sparfloxacin] | 16 (≈ 40.8 µM) | 8 (≈ 20.4 µM) | < 0.06 | 128 (≈ 326 µM) | 16 (≈ 40.8 µM) | < 0.06 | < 0.06 | 8 (≈ 20.4 µM) | > 128 | 0.5 (≈ 1.27 µM) | 16 (≈ 40.8 µM) | > 32 | 0.125 (≈ 0.319 µM) | 0.25 (≈ 0.637 µM) | 0.5 (≈ 1.27 µM) | 1 (≈ 2.55 µM) | 1 (≈ 2.55 µM) | 0.13 (≈ 0.331 µM) |  | 
4 | NC1CCN(c2nc3c(cc2F)c(=O)c(C(=O)O)cn3-c2ccc(F)cc2F)C1 (stereo not drawn) [TSX, tosufloxacin] | > 128 | 8 (≈ 19.8 µM) | < 0.06 | > 128 | 8 (≈ 19.8 µM) | 0.25 (≈ 0.618 µM) | 0.25 (≈ 0.618 µM) | 2 (≈ 4.95 µM) | > 128 | 2 (≈ 4.95 µM) | 8 (≈ 19.8 µM) | 8 (≈ 19.8 µM) | 0.125 (≈ 0.309 µM) | 0.25 (≈ 0.618 µM) | 0.25 (≈ 0.618 µM) | 4 (≈ 9.89 µM) | 4 (≈ 9.89 µM) | 4 (≈ 9.89 µM) |  | 
5 | CCn1cc(C(=O)O)c(=O)c2cc(F)c(N3CCNCC3)cc21 [NOR, norfloxacin] | > 128 | 64 (≈ 200 µM) | 1 (≈ 3.13 µM) | 128 (≈ 401 µM) | 16 (≈ 50.1 µM) | 1 (≈ 3.13 µM) | 16 (≈ 50.1 µM) | 16 (≈ 50.1 µM) | > 128 | 16 (≈ 50.1 µM) | > 128 | 128 (≈ 401 µM) |  | 2 (≈ 6.26 µM) | 2 (≈ 6.26 µM) | 4 (≈ 12.5 µM) | 4 (≈ 12.5 µM) | 2 (≈ 6.26 µM) | 4 (≈ 12.5 µM) | 
6 | O=C(O)c1cn(C2CC2)c2cc(N3CCNCC3)c(F)cc2c1=O [CIP, ciprofloxacin] | 128 (≈ 386 µM) | 32 (≈ 96.6 µM) | 0.25 (≈ 0.754 µM) | 64 (≈ 193 µM) | 8 (≈ 24.1 µM) | 0.25 (≈ 0.754 µM) |  |  | > 128 | 2 (≈ 6.04 µM) |  | > 32 |  | 0.5 (≈ 1.51 µM) |  | 4 (≈ 12.1 µM) | 4 (≈ 12.1 µM) |  | 0.5 (≈ 1.51 µM) | MIC ([16]; S. pneumoniae BCLSP16, PSSP, ParC 79Tyr, GyrA 81Phe, read-out: MIC): > 32 µg/mL
7 | C[C@H]1COc2c(N3CCN(C)CC3)c(F)cc3c(=O)c(C(=O)O)cn1c23 [LVX, levofloxacin] | 16 (≈ 44.3 µM) | 8 (≈ 22.1 µM) | 0.125 (≈ 0.346 µM) | 32 (≈ 88.6 µM) | 4 (≈ 11.1 µM) | 0.25 (≈ 0.692 µM) | 1 (≈ 2.77 µM) | 0.5 (≈ 1.38 µM) | > 128 | 2 (≈ 5.53 µM) | 32 (≈ 88.6 µM) | 64 (≈ 177 µM) |  | 1 (≈ 2.77 µM) | 1 (≈ 2.77 µM) | 2 (≈ 5.53 µM) | 2 (≈ 5.53 µM) | 1 (≈ 2.77 µM) | 2 (≈ 5.53 µM) | MIC ([10]; E. faecium RPR2, quinolone-resistant, ParC 82Ile, GyrA 84Ile 88Lys): >128 µg/mL
